Assay results from paper PMC12123601, “Light-Induced, Lysine-Targeting Irreversible Covalent Inhibition of the Human Oxygen Sensing Hydroxylase Factor Inhibiting HIF (FIH)” (Journal of the American Chemical Society, 2025).

Experiments:
[1] = system: EGLN3 expression in FIH knockdown Hep3B cells; assay: qRT-PCR of EGLN3 in FIH knockdown (siFIH) Hep3B cells; assay type: cell-based
Experimental: 5 NBA-ZG-2991 sustainably engages with FIH and regulates the expression of FIH-dependent HIF target gene EGLN3 in Hep3B cells. (A) The CETSA assay was carried out with Hep3B cells grown in the presence of NBA-ZG-2291 (50 μM) for 12–48 h after 30 min of light activation (365 nm, 16 W). The intensity of the bands for grayscale analysis was referenced to the starting temperature (37 °C). α-Actinin was the sample loading control. n = 2; mean ± SD. […] (E) Correlation heatmap of the NBA-ZG-2291-treated group and the siFIH group by RNA-sequencing analysis. […] The relative fold change with respect to DMSO treated sample is shown (with normalization to HPRT gene levels). Mean ± SEM; n = 3. (G) TG level of NBA-ZG-2291-treated 3T3-L1-derived adipocytes. Mean ± SEM; n = 3. (H) Representative Oil Red O-stained images of the control, ZG-2291-treated, and NBA-ZG-2291-treated 3T3-L1-derived adipocytes. Scale Bar, 30 μm. P values were analyzed by two-way ANOVA comparing with the vehicle/control group (*, P < 0.05; **, P < 0.01; ***, P < 0.001, ****, P < 0.0001). See Methods (Quantitative PCR Analysis of Gene Expression) for assay details. […]

FIH = FIH (Homo sapiens, UniProt Q9NWT6); assay: Intact protein mass analysis of FIH treated with compound; assay type: binding; details: FIH 5 μM, compound 50 μM
Chain of FIH (Q9NWT6 whole entry): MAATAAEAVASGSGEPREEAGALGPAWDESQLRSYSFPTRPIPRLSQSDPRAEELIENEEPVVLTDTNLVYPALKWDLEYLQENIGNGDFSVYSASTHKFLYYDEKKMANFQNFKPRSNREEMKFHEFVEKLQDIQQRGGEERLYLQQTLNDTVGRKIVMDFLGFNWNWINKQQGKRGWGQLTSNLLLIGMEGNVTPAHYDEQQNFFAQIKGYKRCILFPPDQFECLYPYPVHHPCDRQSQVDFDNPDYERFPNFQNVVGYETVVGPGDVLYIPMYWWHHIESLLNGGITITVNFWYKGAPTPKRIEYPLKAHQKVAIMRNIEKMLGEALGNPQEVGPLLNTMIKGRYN
Experimental: 3 (A) Intact protein mass analysis of FIH (5 μM) and FIH (5 μM) treated with NBA-ZG-2291 (50 μM) without irradiation. (B) Crystal structure view of FIH in complex with NBA-ZG-2291 without irradiation. (C) Superimposition of the crystal structure FIH in complex with NBA-ZG-2291 (green) (PDB ID: 9I4H) and that in complex with ZG-2291 (pink) (PDB ID: 8II0 ). (D) Intact protein mass analysis of FIH (5 μM) and FIH (5 μM) treated with NBA-ZG-2291 (50 μM) followed by 30 min of irradiation (365 nm, 16 W). (E) Predicted covalent binding mode of NBA-ZG-2291 with FIH.
Subsequently, we verified the covalent reaction of NBA-ZG-2291 and FIH with irradiation in solution using, intact protein mass analyzes.
3.4 Intact protein mass spectrometry
Purified FIH (5 μM final) was incubated with Lys-1 at 50 μM in 50 mM Tris pH 7.5, 50 μM MnCl2 in a total volume of 100 μL.
All experiments were incubated at 25 ℃ for 1 h, then with or without irradiation at 365 nm for 30 min. […]
The process of customizing non-standard residues (NBA-ZG-2291 modified Lys106) in the amber14sb force field involved the following steps: First, the molecular structure of NBA-ZG-2291 was obtained and its topology was generated. […] The molecular charges were then calculated using the RESP method, and the topology file was updated with these charge values. […]

Covalent adduct with FIH by intact protein MS (FIH; absence of irradiation): failed to detect the covalent adducts
Compound: O=C(O)CNC(=O)c1ncc(-c2cc(-c3ccc(CO)c([N+](=O)[O-])c3)no2)cc1O [NBA-ZG-2291]
Effect on EGLN3 expression when FIH was knocked down [1]: no significant effect on EGLN3 expression | Covalent adduct with FIH by intact protein MS (FIH; 30 min light activation (365 nm, 16 W)): a new peak with the anticipated mass shift corresponding to covalent reaction was detected
